For assay [1], the system named is Staphylococcus epidermidis. As to the kind of experiment: Antimicrobial activity against Staphylococcus epidermidis by broth microdilution method. It is filed as functional.
A further assay has as its target Signal peptidase I (Escherichia coli K-12, UniProt P00803). As to the kind of experiment: (§1) Inhibition of Escherichia coli type I signal peptidase lepB.
Assay [2] deals with Staphylococcus aureus. As to the kind of experiment: Antimicrobial activity against Staphylococcus aureus by broth microdilution method. The format is functional.
The subject of another assay is Escherichia coli. As to the kind of experiment: Antimicrobial activity against Escherichia coli by broth microdilution method. The format is functional.
Assay [3] is described as follows: Inhibition of Staphylococcus aureus type I signal peptidase SpsB-mediated processing of internally quenched fluorescent synthetic peptide substrate.
Assay [4] has as its system Staphylococcus aureus. As to the kind of experiment: Inhibition of Staphylococcus aureus type I signal peptidase SpsB-mediated processing of internally quenched fluorescent synthetic peptide substrate at 200 uM.
In assay [5] the target is Signal peptidase I (Escherichia coli K-12) (UniProt P00803). The description is as §1.
Sequence of Signal peptidase I (Escherichia coli K-12) (P00803 whole entry): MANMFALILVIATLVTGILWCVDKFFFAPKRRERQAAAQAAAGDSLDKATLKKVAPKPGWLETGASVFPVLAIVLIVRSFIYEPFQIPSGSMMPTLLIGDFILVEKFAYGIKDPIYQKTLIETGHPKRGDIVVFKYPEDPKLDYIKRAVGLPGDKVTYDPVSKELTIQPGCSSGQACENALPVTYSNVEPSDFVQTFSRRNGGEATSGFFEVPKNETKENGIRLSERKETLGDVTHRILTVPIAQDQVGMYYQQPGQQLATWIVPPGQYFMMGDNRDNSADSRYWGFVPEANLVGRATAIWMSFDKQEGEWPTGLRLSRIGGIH

In brackets after ≈: the same amount, converted by molar mass. Activity calls are given as the source filed them. The rule behind the calls is not given here. Residues, ends and D or L forms follow the SMILES beside them. *: point of attachment. Decanoyl = CCCCCCCCCC(=O)* A value given as a limit tells only on which side of the number the result lay.

Sequence of Signal peptidase I (P00803 whole entry): as above

For the molecule `CCCCCCCCCC(=O)N1CCC[C@H]1C(=O)N[C@H](C(=O)N[C@@H](C)C(=O)N[C@@H](CC(N)=O)C(=O)N[C@@H](C)C=O)[C@@H](C)O` (Decanoyl-PTANA-aldehyde), the minimum inhibitory concentration (MIC) in assay [1] was 500 µg/mL (≈ 819 µM); against Staphylococcus aureus [2], 125 µg/mL (≈ 205 µM); against Escherichia coli, above 500 µg/mL. The half-inhibitory concentration (IC50) against Signal peptidase I was determined as 13.4 µM; in assay [3], 0.09 µM.
With `CCCCCCCCCC(=O)N[C@@H](CC(C)C)C(=O)N[C@H](C(=O)N1CCC[C@H]1C(=O)N[C@H](C(=O)N[C@@H](C)C(=O)N[C@@H](CCCCN)C(=O)N[C@@H](C)C(=O)N1CCC[C@H]1C(=O)N[C@@H](CO)C(=O)N[C@@H](CCCCN)C(=O)N[C@H](C(=O)N[C@@H](CC(=O)O)C(=O)N[C@@H](CC(=O)O)C(=O)O)[C@@H](C)CC)[C@@H](C)O)[C@@H](C)O` (Decanoyl-LTPTAKAPSKIDD-OH), the result (in assay [1]; in assay [5]; in the assay with Staphylococcus aureus [2]; with Escherichia coli) was inactive. In addition, the inhibition in the assay on Staphylococcus aureus [4] stood at 107%. Also, in assay [3], the IC50 worked out at 0.8 µM.
As for `CCCCCCCCCC(=O)N[C@@H](C)C(=O)N[C@@H](CCCCN)C(=O)N[C@@H](C)C(=O)N1CCC[C@H]1C(=O)N[C@@H](CO)C(=O)N[C@@H](CCCCN)C(=O)N[C@H](C(=O)N[C@@H](CC(=O)O)C(=O)N[C@@H](CC(=O)O)C(=O)O)[C@@H](C)CC` (Decanoyl-AKAPSKIDD-OH), the inhibition in the assay with Staphylococcus aureus [4] is 0%. In addition, the outcome in assay [5] was inactive. Also, the IC50 in assay [3] is above 200 µM.
In the case of `CCCCCCCCCC(=O)N[C@@H](CC(C)C)C(=O)N[C@H](C(=O)N1CCC[C@H]1C(=O)N[C@H](C(=O)N[C@@H](C)C(=O)N[C@@H](CCCCN)C(=O)N[C@@H](C)C(=O)N1CCC[C@H]1C(=O)N[C@@H](CO)C(=O)O)[C@@H](C)O)[C@@H](C)O` (Decanoyl-LTPTAKAPS-OH), in the assay on Staphylococcus aureus [4], the inhibition was determined as 92.9%. For the same molecule, the result in assay [5] was inactive. Further, the IC50 in assay [3] came out at 22.5 µM.
For `CCCCCCCCCC(=O)N[C@H](C(=O)N1CCC[C@H]1C(=O)N[C@H](C(=O)N[C@@H](C)C(=O)N[C@@H](CCCCN)C(=O)N[C@@H](C)C(=O)N1CCC[C@H]1C(=O)N[C@@H](CO)C(=O)N[C@@H](CCCCN)C(=O)N[C@H](C(=O)N[C@@H](CC(=O)O)C(=O)N[C@@H](CC(=O)O)C(=O)O)[C@@H](C)CC)[C@@H](C)O)[C@@H](C)O` (Decanoyl-TPTAKAPSKIDD-OH), the inhibition in the assay on Staphylococcus aureus [4] came to 106%. In addition, in assay [5], the outcome was inactive. This molecule also displayed an IC50 in assay [3] of 4.8 µM.
On to `CCCCCCCCCC(=O)N[C@H](C(=O)N[C@@H](C)C(=O)N[C@@H](CCCCN)C(=O)N[C@@H](C)C(=O)N1CCC[C@H]1C(=O)N[C@@H](CO)C(=O)N[C@@H](CCCCN)C(=O)N[C@H](C(=O)N[C@@H](CC(=O)O)C(=O)N[C@@H](CC(=O)O)C(=O)O)[C@@H](C)CC)[C@@H](C)O` (Decanoyl-TAKAPSKIDD-OH), for which, in the assay on Staphylococcus aureus [4], the inhibition is 98%. Also, in assay [5], the outcome was inactive. The IC50 in assay [3] came out at 30.8 µM.
Regarding `CCCCCCCCCC(=O)N[C@@H](CC(C)C)C(=O)N[C@H](C(=O)N1CCC[C@H]1C(=O)N[C@H](C(=O)N[C@@H](C)C(=O)N[C@@H](CCCCN)C(=O)N[C@@H](C)C(=O)N1CCC[C@H]1C(=O)N[C@@H](CO)C(=O)N[C@@H](CCCCN)C(=O)N[C@H](C(=O)O)[C@@H](C)CC)[C@@H](C)O)[C@@H](C)O` (Decanoyl-LTPTAKAPSKI-OH), the inhibition with Staphylococcus aureus [4] was determined as 107%. Further, the result in assay [5] was inactive. In assay [3], this molecule displayed an IC50 of 2.6 µM.
For the molecule `CCCCCCCCCC(=O)N[C@@H](CC(C)C)C(=O)N[C@H](C(=O)N1CCC[C@H]1C(=O)N[C@H](C(=O)N[C@@H](C)C(=O)N[C@@H](CCCCN)C(=O)N[C@@H](C)C(=O)N1CCC[C@H]1C(=O)N[C@@H](CO)C(=O)N[C@@H](CCCCN)C(=O)O)[C@@H](C)O)[C@@H](C)O` (Decanoyl-LTPTAKAPSK-OH), the inhibition in the assay on Staphylococcus aureus [4] amounted to 108%. In assay [5], the result was inactive. In assay [3], this molecule returned a half-maximal inhibitory concentration (IC50) of 1 µM.
As for `CCCCCCCCCC(=O)N[C@@H](CC(C)C)C(=O)N[C@H](C(=O)N1CCC[C@H]1C(=O)N[C@H](C(=O)N[C@@H](C)C(=O)N[C@@H](CCCCN)C(=O)N[C@@H](C)C(=O)N1CCC[C@H]1C(=O)N[C@@H](CO)C(=O)N[C@@H](CCCCN)C(=O)N[C@H](C(=O)N[C@@H](CC(=O)O)C(=O)O)[C@@H](C)CC)[C@@H](C)O)[C@@H](C)O` (Decanoyl-LTPTAKAPSKID-OH), in the assay on Staphylococcus aureus [4], the inhibition was 108%. In assay [5], the result was inactive. In addition, in assay [3], the IC50 was 5 µM.
On to `CC[C@H](C)[C@H](NC(=O)[C@H](CCCCN)NC(=O)[C@H](CO)NC(=O)[C@@H]1CCCN1C(=O)[C@H](C)NC(=O)[C@H](CCCCN)NC(=O)[C@H](C)NC(=O)[C@@H](NC(=O)[C@@H]1CCCN1C(=O)[C@@H](NC(=O)[C@@H](N)CC(C)C)[C@@H](C)O)[C@@H](C)O)C(=O)N[C@@H](CC(=O)O)C(=O)N[C@@H](CC(=O)O)C(=O)O` (H-LTPTAKAPSKIDD-OH), for which the inhibition in the assay with Staphylococcus aureus [4] was determined as 21.6%. Moreover, the result in assay [5] was inactive. Moreover, in assay [3], the IC50 was above 200 µM.
The like results for `CCCCCCCCCC(=O)N1CCC[C@H]1C(=O)N[C@H](C(=O)N[C@@H](C)C(=O)N[C@@H](CCCCN)C(=O)N[C@@H](C)C(=O)N1CCC[C@H]1C(=O)N[C@@H](CO)C(=O)N[C@@H](CCCCN)C(=O)N[C@H](C(=O)N[C@@H](CC(=O)O)C(=O)N[C@@H](CC(=O)O)C(=O)O)[C@@H](C)CC)[C@@H](C)O` (Decanoyl-PTAKAPSKIDD-OH) were, in that order, 106%, “inactive” and 3.2 µM.

Source of the values: ChEMBL document CHEMBL1151864, “Substrate based peptide aldehyde inhibits bacterial type I signal peptidase” (Bioorg Med Chem Lett, 2009).
